{"source": "patent EP3888461A1", "about": "“NON-AQUEOUS DISPERSIONS COMPRISING INHIBITORS OF HYDROXYPHENYLPYRUVATE-DIOXYGENASE AND CITRIC ACID” (Bayer AG, priority 2020, dated 2021)", "origin": "cited, not measured here", "data": [{"conditions": "commercially available brands of surfactants of structure (II)", "values": [{"substance": "Tween® 21", "Log P": 2.71}, {"substance": "Tween® 20", "Log P": -0.55}, {"substance": "Polyoxyethylene (16) sorbitan monolaurate [Tween® 24]", "Log P": 0.26}, {"substance": "Tween® 80", "Log P": 1.99}, {"substance": "Tween® 40", "Log P": 1.47}, {"substance": "Tween® 60", "Log P": 2.48}]}]}
